Results from patent US20220056043A1, “NITROGEN-CONTAINING FUSED CYCLIC COMPOUND, PREPARATION METHOD THEREFOR AND USE THEREOF” (SICHUAN KELUN-BIOTECH BIOPHARMACEUTICAL CO., LTD., priority 2019, published 2022).
Read-outs that look alike come from different tables or passages of the source.

How the values were obtained:
hTLR8 = molecular target: T1, hTLR8 (Homo sapiens, UniProt Q9NR97); test: Agonistic effect on hTLR8, HEK-Blue hTLR8 cells, alkaline phosphatase secretion; assay type: cell-based; settings: 16 hours
T1 construct: host or cells: HEK-Blue hTLR8 cells
T1 sequence (Q9NR97 27-1041): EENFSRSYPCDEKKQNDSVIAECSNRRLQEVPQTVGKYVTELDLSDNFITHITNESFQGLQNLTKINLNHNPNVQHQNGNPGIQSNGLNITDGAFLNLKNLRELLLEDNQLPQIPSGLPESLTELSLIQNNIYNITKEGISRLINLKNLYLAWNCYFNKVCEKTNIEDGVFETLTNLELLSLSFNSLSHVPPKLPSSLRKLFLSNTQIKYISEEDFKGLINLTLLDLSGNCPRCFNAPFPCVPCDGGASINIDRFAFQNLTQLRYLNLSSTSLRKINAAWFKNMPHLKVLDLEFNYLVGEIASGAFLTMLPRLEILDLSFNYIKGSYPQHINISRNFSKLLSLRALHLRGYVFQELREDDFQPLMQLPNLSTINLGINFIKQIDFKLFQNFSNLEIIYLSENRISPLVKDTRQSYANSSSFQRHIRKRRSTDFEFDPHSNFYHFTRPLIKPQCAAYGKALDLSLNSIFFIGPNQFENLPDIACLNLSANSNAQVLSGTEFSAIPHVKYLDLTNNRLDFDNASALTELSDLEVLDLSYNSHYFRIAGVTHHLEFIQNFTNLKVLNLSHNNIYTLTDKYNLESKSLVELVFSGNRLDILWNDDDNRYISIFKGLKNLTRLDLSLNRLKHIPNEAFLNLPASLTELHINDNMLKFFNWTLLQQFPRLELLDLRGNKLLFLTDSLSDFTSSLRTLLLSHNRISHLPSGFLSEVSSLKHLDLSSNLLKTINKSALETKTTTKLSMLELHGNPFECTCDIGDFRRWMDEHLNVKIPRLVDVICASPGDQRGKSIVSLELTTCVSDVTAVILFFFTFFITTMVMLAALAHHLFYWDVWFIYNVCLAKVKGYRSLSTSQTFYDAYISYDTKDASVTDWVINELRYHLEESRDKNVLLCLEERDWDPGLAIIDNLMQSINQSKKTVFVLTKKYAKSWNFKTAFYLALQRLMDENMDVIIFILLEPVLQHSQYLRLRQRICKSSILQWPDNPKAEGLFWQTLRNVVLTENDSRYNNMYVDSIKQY
Summary of the method: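 HEK-Blue hTLR8 reporter cells were treated with compound (diluted from 10 mM DMSO stock) for 16 h at 37 °C in DMEM/10% FBS. Secreted alkaline phosphatase in supernatant was detected with QUANTI-Blue after 3 h at 37 °C, read at OD620. EC50 came from a four-parameter variable-slope fit.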

THP1-defNLRP3 cells = test: Agonistic effect on the expression of IL-1β in NLRP3 deficient THP1 cells (THP1-defNLRP3) after PMA-induced differentiation (HTRF); assay type: cell-based, human; settings: IL-1β level, PMA-differentiated NLRP3 deficient THP1 cells, 6 hours, highest test concentration 30 μM, read-out: hNLRP3 EC50 (μM) (THP-1defNLRP3)
Summary of the method: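 PMA-differentiated (1 μM, 24 h) NLRP3-deficient THP1 macrophages, 1×10^5 cells/well in RPMI 1640 with 2% heat-inactivated FBS, treated with compound for 6 h at 37 °C. Supernatant IL-1β measured by HTRF. EC50 from four-parameter variable-slope fit.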

Compound | EC50 (hTLR8) [µM] | EC50 (THP1-defNLRP3 cells; Homo sapiens, THP-1) [µM] | EC50 (THP1-defNLRP3 cells) [µM]
Nc1cc(N[C@@H]2CC[C@@H](O)C2)c2sc(-c3ccn[nH]3)cc2n1 [Compound 30, (1R,3R)-3-((5-amino-2-(1H-pyrazol-5-yl)thieno[3,2-b]pyridin-7-yl)amino)cyclopentanol] | > 100 |  | > 30
Nc1cc(NC(CCO)c2ccccc2)c2sc(-c3ccn[nH]3)cc2n1 (stereo not drawn) [Compound 123, 3-((5-amino-2-(1H-pyrazol-5-yl)thieno[3,2-b]pyridin-7-yl)amino)-3-phenyl-1-propanol] | > 100 | > 30 | 
Nc1cc(NCC2CCC2)c2sc(-c3ccn[nH]3)cc2n1 [Compound 126, N^7-(cyclobutylmethyl)-2-(1H-pyrazol-5-yl)thieno[3,2-b]pyridine-5,7-diamine] | > 100 | > 30 | 
C[C@]1(O)C[C@@H](Nc2cc(N)nc3cc(-c4ccn[nH]4)sc23)C1 [Compound 129, (1s,3s)-3-((5-amino-2-(1H-pyrazol-5-yl)thieno[3,2-b]pyridin-7-yl)amino)-1-methylcyclobutanol] | > 100 | > 30 | 
COC[C@@H](C)Nc1cc(N)nc2cc(-c3ccn[nH]3)sc12 [Compound 133, (R)—N^7-(1-methoxyprop-2-yl)-2-(1H-pyrazol-5-yl)thieno[3,2-b]pyridine-5,7-diamine] | > 100 | > 30 | 
Nc1cc(NCC(CO)CO)c2sc(-c3ccn[nH]3)cc2n1 [Compound 136] | > 100 | > 30 | 
Nc1cc(N[C@H]2[C@@H]3CNC[C@@H]32)c2sc(-c3ccn[nH]3)cc2n1 [Compound 142, N^7-((1R,5S,6S)-3-azabicyclo[3.1.0]hex-6-yl)-2-(1H-pyrazol-5-yl)thieno[3,2-b]pyridin-5,7-diamine] | > 100 | > 30 | 
Nc1cc(NC2CCC(F)(F)CC2)c2sc(-c3ccn[nH]3)cc2n1 [Compound 143, N^7-(4,4-difluorocyclohexyl)-2-(1H-pyrazol-5-yl)thieno[3,2-b]pyridin-5,7-diamine] | > 100 | > 30 | 
CCN(CCNc1cc(N)nc2cc(-c3ccn[nH]3)sc12)C(=O)C1CC1 [Compound 146, N-(2-((5-amino-2-(1H-pyrazol-5-yl)thieno[3,2-b]pyridin-7-yl)amino)ethyl)-N-ethylcyclopropyl formamide] | > 100 | > 30 | 
C[C@@H]1CN(c2cc(N)nc3cc(-c4ccn[nH]4)sc23)C[C@@H](C)O1 [Compound 148, 7-((2R,6R)-2,6-dimethylmorpholino)-2-(1H-pyrazol-5-yl)thieno[3,2-b]pyridine-5-amine] | > 100 | > 30 | 
Cc1noc(C)c1CNc1cc(N)nc2cc(-c3ccn[nH]3)sc12 [Compound 149, N^7-((3,5-dimethylisoxazol-4-yl)methyl)-2-(1H-pyrazol-5-yl)thieno[3,2-b]pyridine-5,7-diamine] | > 100 | > 30 | 
Nc1cc(NCCCN2CCCC2=O)c2sc(-c3ccn[nH]3)cc2n1 [Compound 150] | > 100 | > 30 | 
Cc1c(-c2cc[nH]n2)sc2c(NCC(C)(C)CO)cc(N)nc12 [Compound 151] | > 100 | > 30 | 
COCCNc1cc(N)nc2c(C)c(-c3cc[nH]n3)sc12 [Compound 152] | > 100 | > 30 | 

More lines, now with the values ahead:

EC50 (hTLR8) [µM] | EC50 (THP1-defNLRP3 cells; Homo sapiens, THP-1) [µM] | EC50 (THP1-defNLRP3 cells) [µM] | Compound
> 100 | > 30 |  | CC(C)(O)CNc1cc(N)nc2cc(-c3ccn[nH]3)sc12 [Compound 28, (1-(5-amino-2-(1H-pyrazol-5-yl)thieno[3,2-b]pyridin-7-yl)amino)-2-methyl-2-propanol]
> 100 | > 30 |  | C[C@@H](O)CNc1cc(N)nc2cc(-c3ccn[nH]3)sc12 [Compound 29]
> 100 | > 30 |  | CN(CCCO)c1cc(N)nc2cc(-c3ccn[nH]3)sc12 [Compound 127, 3-((5-amino-2-(1H-pyrazol-5-yl)thieno[3,2-b]pyridin-7-yl)(methyl)amino)-1-propanol]
> 100 | > 30 |  | C[C@H]1CC[C@H](Nc2cc(N)nc3cc(-c4ccn[nH]4)sc23)CC1 [Compound 128, N^7-((1R,4R)-4-methylcyclohexyl)-2-(1H-pyrazol-5-yl)thieno[3,2-b]pyridine-5,7-diamine]
> 100 | > 30 |  | C[C@H](Nc1cc(N)nc2cc(-c3ccn[nH]3)sc12)c1cccc(C(F)(F)F)c1 [Compound 131, (S)-2-(1H-pyrazol-5-yl)-N^7-(1-(3-(trifluoromethyl)phenyl)ethyl)thieno[3,2-b]pyridine-5,7-diamine]
> 100 | > 30 |  | CC[C@@H](CO)Nc1cc(N)nc2cc(-c3ccn[nH]3)sc12 [Compound 132, (S)-2-((5-amino-2-(1H-pyrazol-5-yl)thieno[3,2-b]pyridin-7-yl)amino)-1-butanol]
> 100 | > 30 |  | Cc1cccnc1CNc1cc(N)nc2cc(-c3ccn[nH]3)sc12 [Compound 134, N^7-((3-methylpyridin-2-yl)methyl)-2-(1H-pyrazol-5-yl)thieno[3,2-b]pyridine-5,7-diamine]
> 100 | > 30 |  | Nc1cc(NCCN2CCCC2=O)c2sc(-c3ccn[nH]3)cc2n1 [Compound 135, 1-(2-((5-amino-2-(1H-pyrazol-5-yl)thieno[3,2-b]pyridin-7-yl)amino)ethyl)pyrrolidin-2-one]
> 100 | > 30 |  | CNC(=O)CNc1cc(N)nc2cc(-c3ccn[nH]3)sc12 [Compound 137, 2-((5-amino-2-(1H-pyrazol-5-yl)thieno[3,2-b]pyridin-7-yl)amino)-N-methylacetamide]
> 100 | > 30 |  | Nc1cc(NCC(=O)NC2CC2)c2sc(-c3ccn[nH]3)cc2n1 [Compound 138, 2-((5-amino-2-(1H-pyrazol-5-yl)thieno[3,2-b]pyridin-7-yl)amino)-N-cyclopropylacetamide]
> 100 | > 30 |  | CN(CCO)c1cc(N)nc2cc(-c3ccn[nH]3)sc12 [Compound 139, 2-((5-amino-2-(1H-pyrazol-5-yl)thieno[3,2-b]pyridin-7-yl)(methyl)amino)ethanol]
> 100 | > 30 |  | CCN(CCNc1cc(N)nc2cc(-c3ccn[nH]3)sc12)C(=O)Cc1cccc(C)c1 [Compound 140, N-(2-((5-amino-2-(1H-pyrazol-5-yl)thieno[3,2-b]pyridin-7-yl)amino)ethyl)-N-ethyl-2-(m-tolyl)acetamide]
> 100 | > 30 |  | CC(C)CNc1cc(N)nc2cc(-c3ccn[nH]3)sc12 [Compound 141, N^7-isobutyl-2-(1H-pyrazol-5-yl)thieno[3,2-b]pyridin-5,7-diamine]
> 100 | > 30 |  | CC(C)C[C@H](CO)Nc1cc(N)nc2cc(-c3ccn[nH]3)sc12 [Compound 144, (R)-2-((5-amino-2-(1H-pyrazol-5-yl)thieno[3,2-b]pyridin-7-yl)amino)-4-methyl-1-pentanol]
> 100 | > 30 |  | CCC(=O)N(CC)CCNc1cc(N)nc2cc(-c3ccn[nH]3)sc12 [Compound 145, N-(2-((5-amino-2-(1H-pyrazol-5-yl)thieno[3,2-b]pyridin-7-yl)amino)ethyl)-N-ethylpropionamide]
> 100 | > 30 |  | Nc1cc(N[C@H]2CC[C@H](O)CC2)c2sc(-c3ccn[nH]3)cc2n1 [Compound 147, (1R,4R)-4-((5-amino-2-(1H-pyrazol-5-yl)thieno[3,2-b]pyridin-7-yl)amino)cyclohexanol]
